49 compounds from ChEMBL document CHEMBL1141299, “Hologram QSAR model for the prediction of human oral bioavailability” (Bioorg Med Chem, 2007) can be followed below.

The term bioavailability denotes the share of a dose that reaches the circulation, judged against a reference dose that is usually intravenous. Low values mean little systemic uptake, high ones much systemic uptake.

One series in a line: Oral bioavailability in human. The following applies: in vivo.
Turning to `CCCCCc1cc(O)c2c(c1)OC(C)(C)[C@@H]1CCC(C)=C[C@@H]21` [DRONABINOL], the bioavailability was determined as 15%.

The compound `C[C@]12C=CC(=O)N[C@@H]1CC[C@@H]1[C@@H]2CC[C@]2(C)[C@@H](C(=O)Nc3cc(C(F)(F)F)ccc3C(F)(F)F)CC[C@@H]12` [DUTASTERIDE] gave a bioavailability of 60%.

With `CCC(=O)C(C[C@H](C)N(C)C)(c1ccccc1)c1ccccc1` [ESMETHADONE], the bioavailability stood at 92%.

`CN1CCN(C(=O)O[C@H]2c3nccnc3C(=O)N2c2ccc(Cl)cn2)CC1` [ESZOPICLONE] had a bioavailability of 80%.

On to `OCCN1CCN(CCCN2c3ccccc3Sc3ccc(C(F)(F)F)cc32)CC1` [FLUPHENAZINE], for which the bioavailability was 2.7%.

`CC(C)n1c(/C=C/[C@H](O)C[C@H](O)CC(=O)O)c(-c2ccc(F)cc2)c2ccccc21` [FLUVASTATIN] came in with a bioavailability of 24%.

Turning to `NCC1(CC(=O)O)CCCCC1` [GABAPENTIN], the bioavailability stood at 60%.

The compound `Cc1c(OCC(F)(F)F)ccnc1C[S+]([O-])c1nc2ccccc2[nH]1` (centres undefined) [LANSOPRAZOLE] gave a bioavailability of 80%.

Regarding `CCN[C@H](C)Cc1cccc(C(F)(F)F)c1` [LEVOFENFLURAMINE], the bioavailability is 89%.

Consider `CCC(=O)C(C[C@@H](C)N(C)C)(c1ccccc1)c1ccccc1` [LEVOMETHADONE], for which the bioavailability is 92%.

`CC[C@H](OC(C)=O)C(C[C@H](C)N(C)C)(c1ccccc1)c1ccccc1` [LEVOMETHADYL ACETATE]: the bioavailability stood at 47%.

Turning to `CN1C[C@H](CNC(=O)OCc2ccccc2)C[C@@H]2c3cccc4c3c(cn4C)C[C@H]21` [METERGOLINE], the bioavailability worked out at 23%.

Consider `CC[C@@H](CO)NC(=O)[C@@H]1C=C2c3cccc4c3c(cn4C)C[C@H]2N(C)C1` [METHYSERGIDE], for which the bioavailability was found to be 13%.

The same series, now with this note: in vivo, F.
For the compound `COc1cc2nc(N3CCN(C(=O)C4COc5ccccc5O4)CC3)nc(N)c2cc1OC` (centres undefined) [DOXAZOSIN], the bioavailability was 65%.

`C[C@H]1c2cccc(O)c2C(=O)C2=C(O)[C@]3(O)C(=O)C(C(N)=O)=C(O)[C@@H](N(C)C)[C@@H]3[C@@H](O)[C@@H]21.O` [DOXYCYCLINE]: the bioavailability is 93%.

`Nc1nc(=O)n([C@@H]2CS[C@H](CO)O2)cc1F` [EMTRICITABINE] came in with a bioavailability of 93%.

`N/N=c1/cc2c(n[nH]1)CCN(C(=O)c1ccccc1)C2` [ENDRALAZINE] came in with a bioavailability of 75%.

With `CSc1ccc(C(=O)c2[nH]c(=O)[nH]c2C)cc1` [ENOXIMONE], the bioavailability is 53%.

For the compound `CCN(CC)CC(O)CNC(=O)c1c(OC)c2ccccc2n1-c1ccccc1` (centres undefined) [EPROXINDINE], the bioavailability turned out to be 70%.

`CC[C@H]1OC(=O)[C@H](C)[C@@H](O[C@H]2C[C@@](C)(OC)[C@@H](O)[C@H](C)O2)[C@H](C)[C@@H](O[C@@H]2O[C@H](C)C[C@H](N(C)C)[C@H]2O)[C@](C)(O)C[C@@H](C)C(=O)[C@H](C)[C@@H](O)[C@]1(C)O` [ERYTHROMYCIN] had a bioavailability of 35%.

Turning to `CN(C)CCC[C@@]1(c2ccc(F)cc2)OCc2cc(C#N)ccc21` [ESCITALOPRAM], the bioavailability was determined as 80%.

With `C[C@H](C(=O)O)c1ccc(-c2ccccc2)c(F)c1` [ESFLURBIPROFEN], the bioavailability was 92%.

As for `COc1ccc2nc([S@@+]([O-])Cc3ncc(C)c(OC)c3C)[nH]c2c1` [ESOMEPRAZOLE], the bioavailability came to 90%.

As to `CCCCC(=O)O[C@H]1CC[C@H]2[C@@H]3CCc4cc(O)ccc4[C@H]3CC[C@]12C` [ESTRADIOL VALERATE], the bioavailability came to 3%.

For the compound `CC[C@@H](CO)NCCN[C@@H](CC)CO` [ETHAMBUTOL], the bioavailability is 77%.

The compound `C#C[C@]1(O)CC[C@H]2[C@@H]3CCc4cc(O)ccc4[C@H]3CC[C@@]21C` [ETHINYL ESTRADIOL] yielded a bioavailability of 40%.

The compound `CC(=O)OCC(CCn1cnc2cnc(N)nc21)COC(C)=O` [FAMCICLOVIR] returned a bioavailability of 77%.

As for `COc1ccc(-c2nc(-c3ccc(F)cc3F)[nH]c2-c2ccc(OC)cc2)cc1` [FENFLUMIZOLE], the bioavailability amounted to 50%.

In turn, `Cc1onc(-c2c(F)cccc2Cl)c1C(=O)N[C@@H]1C(=O)N2[C@@H]1SC(C)(C)[C@@H]2C(=O)O` [FLOXACILLIN] gave a bioavailability of 49%.

`Nc1nc(=O)[nH]cc1F` [FLUCYTOSINE] yielded a bioavailability of 83.5%.

On to `CC1(C)O[C@@H]2C[C@H]3[C@@H]4C[C@H](F)C5=CC(=O)C=C[C@]5(C)[C@H]4[C@@H](O)C[C@]3(C)[C@]2(C(=O)CO)O1` [FLUNISOLIDE], for which the bioavailability was determined as 20%.

Consider `C[C@@H]1C[C@H]2[C@@H]3C[C@H](F)C4=CC(=O)C=C[C@]4(C)[C@H]3[C@@H](O)C[C@]2(C)[C@H]1C(=O)CO` [FLUOCORTOLONE], for which the bioavailability worked out at 83.5%.

In turn, `C[C@@H]1C[C@H]2[C@@H]3C[C@H](F)C4=CC(=O)C=C[C@]4(C)[C@@]3(F)[C@@H](O)C[C@]2(C)[C@@]1(O)C(=O)SCF` [FLUTICASONE] had a bioavailability of 1%.

In turn, `COc1cc2ncnc(Nc3ccc(F)c(Cl)c3)c2cc1OCCCN1CCOCC1` [GEFITINIB] came in with a bioavailability of 60%.

The compound `CO/N=C1\CN(c2nc3c(cc2F)c(=O)c(C(=O)O)cn3C2CC2)CC1CN` (centres undefined) [GEMIFLOXACIN] showed a bioavailability of 71%.

For the compound `CCC1=C(C)CN(C(=O)NCCc2ccc(S(=O)(=O)NC(=O)N[C@H]3CC[C@H](C)CC3)cc2)C1=O` [GLIMEPIRIDE], the bioavailability is 100%.

`COc1ccc(Cl)cc1C(=O)NCCc1ccc(S(=O)(=O)NC(=O)NC2CCCCC2)cc1` [GLYBURIDE] yielded a bioavailability of 95%.

As to `O=C(CCCN1CCC(O)(c2ccc(Cl)cc2)CC1)c1ccc(F)cc1` [HALOPERIDOL], the bioavailability amounted to 60%.

`NS(=O)(=O)c1cc2c(cc1Cl)NCNS2(=O)=O` [HYDROCHLOROTHIAZIDE] showed a bioavailability of 71%.

Compound `CC(=O)[C@]1(O)Cc2c(O)c3c(c(O)c2[C@@H](O[C@H]2C[C@H](N)[C@H](O)[C@H](C)O2)C1)C(=O)c1ccccc1C3=O` [IDARUBICIN] gave a bioavailability of 28%.

`CN(C)CCCN1c2ccccc2CCc2ccccc21` [IMIPRAMINE]: the bioavailability was determined as 42%.

Compound `CCC(C)n1ncn(-c2ccc(N3CCN(c4ccc(OC[C@H]5CO[C@](Cn6cncn6)(c6ccc(Cl)cc6Cl)O5)cc4)CC3)cc2)c1=O` (some centres undefined) [ITRACONAZOLE] yielded a bioavailability of 55%.

The compound `Nc1ccn([C@@H]2CS[C@H](CO)O2)c(=O)n1` [LAMIVUDINE] yielded a bioavailability of 86%.

Compound `N#Cc1ccc(C(c2ccc(C#N)cc2)n2cncn2)cc1` [LETROZOLE] had a bioavailability of 99.9%.

The compound `C#C[C@]1(O)CC[C@H]2[C@@H]3CCC4=CC(=O)CC[C@@H]4[C@H]3CC[C@@]21CC` [LEVONORGESTREL] had a bioavailability of 87%.

`C=C1c2cccc(O)c2C(=O)C2=C(O)[C@]3(O)C(=O)C(C(N)=O)=C(O)[C@@H](N(C)C)[C@@H]3[C@@H](O)[C@H]12` [METHACYCLINE] had a bioavailability of 58%.

With `Cn1cc[nH]c1=S` [METHIMAZOLE], the bioavailability is 93%.

`CN(Cc1cnc2nc(N)nc(N)c2n1)c1ccc(C(=O)N[C@@H](CCC(=O)O)C(=O)O)cc1` [METHOTREXATE] displayed a bioavailability of 70%.

`C[C@H]1C[C@@H]2[C@H]([C@@H](O)C[C@@]3(C)[C@H]2CC[C@]3(O)C(=O)CO)[C@@]2(C)C=CC(=O)C=C12` [METHYLPREDNISOLONE] had a bioavailability of 82%.
